Laboratory results taken from PubChem BioAssay AID328 (DTP/NCI, 2004).
Values joined by “and” are separate entries in the source; they are usually repeats but may differ in a detail not shown here. Equal entries are not always repeated. Toxic doses and inconclusive results are not listed.

System: BDF1 mice, P388 leukemia ip, median survival T/C
Test: NCI In Vivo Anticancer Drug Screen. Data for tumor model P388 Leukemia (intraperitoneal) in B6D2F1 (BDF1) mice
Conditions: endpoint: median survival time, higher = longer survival
How it was run: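 Vehicle-dosed animals serve as the reference; survival of compound-dosed, tumour-implanted mice is divided by it.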

[1] = dose: 100.0 mg/kg/injection, schedule: Q04DX003 (ip), vehicle: saline with Tween-80
[2] = dose: 200.0 mg/kg/injection, schedule: Q04DX003 (ip), vehicle: saline with Tween-80
[3] = dose: 400.0 mg/kg/injection, schedule: Q04DX003 (ip), vehicle: saline with Tween-80
[4] = dose: 50.0 mg/kg/injection, schedule: Q01DX009 (ip), vehicle: saline with Tween-80
[5] = dose: 100.0 mg/kg/injection, schedule: Q01DX009 (ip), vehicle: saline with Tween-80
[6] = dose: 200.0 mg/kg/injection, schedule: Q01DX009 (ip), vehicle: saline with Tween-80
[7] = dose: 5.56 mg/kg/injection, schedule: Q01DX009 (ip), vehicle: saline
[8] = dose: 8.33 mg/kg/injection, schedule: Q01DX009 (ip), vehicle: saline
[9] = dose: 12.5 mg/kg/injection, schedule: Q01DX009 (ip), vehicle: saline
[10] = dose: 12.5 mg/kg/injection, schedule: Q01DX009 (ip), vehicle: saline with Tween-80
[11] = dose: 100.0 mg/kg/injection, schedule: Q01DX009 (ip), vehicle: saline
[12] = dose: 200.0 mg/kg/injection, schedule: Q01DX009 (ip), vehicle: saline
[13] = dose: 400.0 mg/kg/injection, schedule: Q01DX009 (ip), vehicle: saline
[14] = dose: 25.0 mg/kg/injection, schedule: Q01DX009 (ip), vehicle: Klucel (hydroxypropylcellulose) (HPC)
[15] = dose: 100.0 mg/kg/injection, schedule: Q01DX009 (ip), vehicle: Klucel (hydroxypropylcellulose) (HPC)

C#CC(C)OCC1CNC(=S)O1 (stereo not given)
T/C (dose: 50.0 mg/kg/injection, schedule: Q04DX003 (ip), vehicle: saline with Tween-80): 110 % of control
T/C [1]: 100 % of control
T/C [2]: 115 % of control
T/C [3]: 110 % of control

COc1ccc2c(c1)CC[C@@H]1[C@@H]2CC[C@@]2(C)[C@H]1CC[C@@]2(O)C(F)=C(F)F
T/C [4]: 118 % of control
T/C [5]: 113 % of control
T/C [6]: 104 % of control

CCC1CC2CN(CCc3c([nH]c4ccccc34)C(C(=O)OC)(c3cc4c(cc3OC)N(C)C3C(O)(C(=O)OC)C(OC(C)=O)C5(CC)C=CCN6CCC43C65)C2)C1 (stereo not given)
T/C (dose: 0.06 mg/kg/injection, schedule: Q01DX009 (ip), vehicle: water): 90 % of control
T/C (dose: 0.12 mg/kg/injection, schedule: Q01DX009 (ip), vehicle: water): 90 % of control and 100 % of control
T/C (dose: 0.25 mg/kg/injection, schedule: Q01DX009 (ip), vehicle: water): 95 % of control and 100 % of control
T/C (dose: 0.5 mg/kg/injection, schedule: Q01DX009 (ip), vehicle: water): 90 % of control and 100 % of control
T/C (dose: 1.0 mg/kg/injection, schedule: Q01DX009 (ip), vehicle: water): 90 % of control and 95 % of control and 100 % of control
T/C (dose: 2.0 mg/kg/injection, schedule: Q01DX009 (ip), vehicle: water): 90 % of control and 95 % of control
T/C (dose: 4.0 mg/kg/injection, schedule: Q01DX009 (ip), vehicle: water): 100 % of control
T/C (dose: 8.0 mg/kg/injection, schedule: Q01DX009 (ip), vehicle: water): 100 % of control and 90 % of control

CC(Br)C(=O)NC(C)C(=O)O (stereo not given)
T/C [1]: 100 % of control
T/C [2]: 109 % of control
T/C [3]: 118 % of control

CC(=O)O.CC(=O)O.CC(=O)O.CC(=O)O.[Rh].[Rh]
T/C [7]: 100 % of control and 122 % of control
T/C [8]: 100 % of control
T/C [9]: 118 % of control
T/C (dose: 18.7 mg/kg/injection, schedule: Q01DX009 (ip), vehicle: saline): 90 % of control and 111 % of control

Cc1ccc(Nc2nc(N)nc(CNc3ccc(Cl)cc3)n2)cc1
T/C (dose: 100.0 mg/kg/injection, schedule: Q04DX003 (ip), vehicle: saline sonified): 110 % of control
T/C (dose: 200.0 mg/kg/injection, schedule: Q04DX003 (ip), vehicle: saline sonified): 100 % of control
T/C (dose: 400.0 mg/kg/injection, schedule: Q04DX003 (ip), vehicle: saline sonified): 100 % of control

O=[N+]([O-])c1cccc2c1ccc[n+]2Cc1ccccc1
T/C [10]: 112 % of control
T/C (dose: 25.0 mg/kg/injection, schedule: Q01DX009 (ip), vehicle: saline with Tween-80): 115 % of control
T/C [4]: 122 % of control

CCOC(=O)C(=O)CC(=O)/C=C/c1ccccc1
T/C [5]: 96 % of control
T/C [6]: 107 % of control

CC(C)C1(C(=O)NN)OC2(O)CCCCCN2C1=O (stereo not given)
T/C [11]: 90 % of control
T/C [12]: 90 % of control
T/C [13]: 100 % of control

OCCN1CCN(CC/C=C2/c3ccccc3Sc3ccc(Cl)cc32)CC1
T/C [7]: 108 % of control
T/C [8]: 108 % of control
T/C [9]: 120 % of control
T/C (dose: 25.0 mg/kg/injection, schedule: Q01DX009 (ip), vehicle: saline): 113 % of control
T/C (dose: 33.0 mg/kg/injection, schedule: Q04DX003 (ip), vehicle: saline): 150 % of control

CC(=O)[C@@]1(O)CC[C@H]2[C@@H]3C[C@H](C)C4=CC(=O)CC[C@]4(C)[C@H]3[C@@H](O)C[C@@]21C
T/C [1]: 109 % of control
T/C [6]: 122 % of control
T/C [2]: 109 % of control
T/C (dose: 400.0 mg/kg/injection, schedule: Q01DX009 (ip), vehicle: saline with Tween-80): 90 % of control
T/C [3]: 118 % of control

CC(=O)Nc1cccc(N(CCOS(C)(=O)=O)CCOS(C)(=O)=O)c1
T/C (dose: 13.0 mg/kg/injection, schedule: Q04DX003 (ip), vehicle: saline sonified): 95 % of control
T/C (dose: 20.0 mg/kg/injection, schedule: Q04DX003 (ip), vehicle: saline sonified): 95 % of control
T/C (dose: 30.0 mg/kg/injection, schedule: Q04DX003 (ip), vehicle: saline sonified): 100 % of control

N=C(N)SCc1ccccc1
T/C (dose: 50.0 mg/kg/injection, schedule: Q01DX001 (ip), vehicle: saline): 98 % of control

NCC(=O)O
T/C [11]: 95 % of control
T/C (dose: 100.0 mg/kg/injection, schedule: Q04DX003 (ip), vehicle: saline): 100 % of control
T/C [12]: 104 % of control
T/C (dose: 200.0 mg/kg/injection, schedule: Q04DX003 (ip), vehicle: saline): 95 % of control
T/C [13]: 95 % of control
T/C (dose: 400.0 mg/kg/injection, schedule: Q04DX003 (ip), vehicle: saline): 95 % of control

CCN(CC)CCCC#CCN1CCCCC1
T/C [14]: 100 % of control
T/C (dose: 25.0 mg/kg/injection, schedule: Q04DX003 (ip), vehicle: Klucel (hydroxypropylcellulose) (HPC)): 91 % of control
T/C (dose: 50.0 mg/kg/injection, schedule: Q01DX009 (ip), vehicle: Klucel (hydroxypropylcellulose) (HPC)): 90 % of control
T/C (dose: 50.0 mg/kg/injection, schedule: Q04DX003 (ip), vehicle: Klucel (hydroxypropylcellulose) (HPC)): 91 % of control
T/C [15]: 100 % of control
T/C (dose: 100.0 mg/kg/injection, schedule: Q04DX003 (ip), vehicle: Klucel (hydroxypropylcellulose) (HPC)): 91 % of control

CN(C)N=Nc1ccccc1[N+](=O)[O-]
T/C [14]: 107 % of control
T/C [15]: 92 % of control

CC1NC(=O)C2Cc3ccc(O)c(c3)Oc3ccc(cc3)C(O)C(C(=O)N2C)N(C)C(=O)C(C)NC(=O)C(Cc2ccc(O)cc2)N(C)C(=O)C(C)NC1=O (stereo not given)
T/C (dose: 1.0 mg/kg/injection, schedule: Q01DX009 (ip), vehicle: saline with Tween-80): 98 % of control
T/C (dose: 2.0 mg/kg/injection, schedule: Q01DX009 (ip), vehicle: saline with Tween-80): 94 % of control
T/C (dose: 4.0 mg/kg/injection, schedule: Q01DX009 (ip), vehicle: saline with Tween-80): 107 % of control
T/C (dose: 8.0 mg/kg/injection, schedule: Q01DX009 (ip), vehicle: saline with Tween-80): 110 % of control
T/C (dose: 16.0 mg/kg/injection, schedule: Q01DX009 (ip), vehicle: saline with Tween-80): 101 % of control

Clc1ncnc2nc[nH]c12
T/C (dose: 7.5 mg/kg/injection, schedule: Q01DX010 (ip), vehicle: saline): 92 % of control and 118 % of control
T/C (dose: 15.0 mg/kg/injection, schedule: Q01DX010 (ip), vehicle: saline): 92 % of control and 122 % of control
T/C (dose: 30.0 mg/kg/injection, schedule: Q01DX010 (ip), vehicle: saline): 100 % of control
T/C (dose: 60.0 mg/kg/injection, schedule: Q01DX010 (ip), vehicle: saline): 100 % of control

CCC[CH2][Sn]([CH2]CCC)([O]C(C)=O)[O]C(C)=O
T/C (dose: 3.12 mg/kg/injection, schedule: Q01DX009 (ip), vehicle: saline with Tween-80): 114 % of control
T/C (dose: 6.12 mg/kg/injection, schedule: Q01DX009 (ip), vehicle: saline): 154 % of control
T/C (dose: 6.25 mg/kg/injection, schedule: Q01DX009 (ip), vehicle: saline with Tween-80): 151 % of control
T/C [10]: 86 % of control
T/C [9]: 156 % of control
